From ChEMBL document CHEMBL1131945, “Nonpeptide small-molecular inhibitors of dipeptidyl peptidase IV: N-phenylphthalimide analogs” (Bioorg Med Chem Lett, 1999)
Where “and” joins values, the source holds several entries; their conditions need not be identical. Equal values may be shown once.

Tests used:
[1] = Cytotoxicity in human embryonic lung flbroblast Wl-38 cells using WST-1 viability assay
Dipeptidyl peptidase 4 = Dipeptidyl peptidase 4 (Homo sapiens, UniProt P27487); assay: Inhibitory activity against Dipeptidylpeptidase IV (DPP IV) in human acute lymphoblastic leukemia MOLT-4 cell line; format: cell-based
Dipeptidyl peptidase 4, sequence (P27487 whole entry): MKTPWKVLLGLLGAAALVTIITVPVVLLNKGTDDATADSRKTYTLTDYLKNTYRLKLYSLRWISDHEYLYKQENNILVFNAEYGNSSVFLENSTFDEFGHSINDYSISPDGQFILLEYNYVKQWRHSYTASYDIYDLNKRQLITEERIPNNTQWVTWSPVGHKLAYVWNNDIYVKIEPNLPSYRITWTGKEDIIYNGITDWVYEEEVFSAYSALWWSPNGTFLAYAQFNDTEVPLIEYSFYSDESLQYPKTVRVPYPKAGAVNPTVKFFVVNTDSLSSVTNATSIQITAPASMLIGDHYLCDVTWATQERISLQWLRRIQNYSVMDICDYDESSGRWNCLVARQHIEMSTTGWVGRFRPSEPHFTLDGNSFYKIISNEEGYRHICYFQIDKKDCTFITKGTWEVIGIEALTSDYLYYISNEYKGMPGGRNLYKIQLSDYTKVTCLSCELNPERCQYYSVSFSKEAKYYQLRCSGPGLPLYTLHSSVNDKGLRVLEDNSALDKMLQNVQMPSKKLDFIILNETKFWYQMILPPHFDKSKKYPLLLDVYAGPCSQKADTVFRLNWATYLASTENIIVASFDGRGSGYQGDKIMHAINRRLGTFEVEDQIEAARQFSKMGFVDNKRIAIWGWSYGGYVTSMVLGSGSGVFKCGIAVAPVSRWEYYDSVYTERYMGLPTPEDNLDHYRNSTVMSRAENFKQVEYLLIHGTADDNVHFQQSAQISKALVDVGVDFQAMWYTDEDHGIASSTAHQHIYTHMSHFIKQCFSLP

Aminopeptidase N = Aminopeptidase N (Homo sapiens, UniProt P15144); assay: Inhibitory activity against aminopeptidase N (APN) in human acute lymphoblastic leukemia MOLT-4 cell line; format: cell-based
Aminopeptidase N, sequence (P15144 whole entry): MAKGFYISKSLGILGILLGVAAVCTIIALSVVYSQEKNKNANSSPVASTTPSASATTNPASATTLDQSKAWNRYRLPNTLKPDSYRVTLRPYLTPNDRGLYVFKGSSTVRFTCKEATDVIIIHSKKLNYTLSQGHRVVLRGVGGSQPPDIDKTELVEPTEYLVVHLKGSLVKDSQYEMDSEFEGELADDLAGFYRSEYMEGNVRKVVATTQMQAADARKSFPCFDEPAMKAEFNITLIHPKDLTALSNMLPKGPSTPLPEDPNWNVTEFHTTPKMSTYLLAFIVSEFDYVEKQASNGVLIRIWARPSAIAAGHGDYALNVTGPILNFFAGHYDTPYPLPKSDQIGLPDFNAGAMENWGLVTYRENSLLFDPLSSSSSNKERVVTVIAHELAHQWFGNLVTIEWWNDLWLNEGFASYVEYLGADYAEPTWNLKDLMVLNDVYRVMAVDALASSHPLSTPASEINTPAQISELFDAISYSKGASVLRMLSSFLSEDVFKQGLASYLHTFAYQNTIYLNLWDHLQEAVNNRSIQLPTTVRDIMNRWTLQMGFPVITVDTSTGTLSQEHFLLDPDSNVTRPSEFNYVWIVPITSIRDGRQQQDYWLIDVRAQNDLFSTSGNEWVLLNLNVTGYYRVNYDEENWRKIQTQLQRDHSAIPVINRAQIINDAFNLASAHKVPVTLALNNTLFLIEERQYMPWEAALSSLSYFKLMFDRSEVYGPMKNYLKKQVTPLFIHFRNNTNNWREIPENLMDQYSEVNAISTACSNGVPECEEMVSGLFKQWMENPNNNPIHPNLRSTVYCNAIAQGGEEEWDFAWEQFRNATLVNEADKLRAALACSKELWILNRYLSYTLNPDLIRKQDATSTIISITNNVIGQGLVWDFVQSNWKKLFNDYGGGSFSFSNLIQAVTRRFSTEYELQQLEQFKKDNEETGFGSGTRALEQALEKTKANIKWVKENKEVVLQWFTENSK

CC(C)c1cccc(C(C)C)c1N1C(=O)c2ccc(N)cc2C1=O
IC50 [1]: > 100 µg/mL and > 310 µM

CCc1cccc(CC)c1N1C(=O)c2ccc(O)cc2C1=O
IC50 [1]: 52 µg/mL and 176 µM

Cc1cccc(C)c1N1C(=O)c2cccc(O)c2C1=O
IC50 (Dipeptidyl peptidase 4): > 374 µM
IC50 [1]: > 100 µg/mL

Cc1cccc(C)c1N1C(=O)c2cccc(N)c2C1=O
IC50 (Aminopeptidase N): 109 µM
IC50 (Dipeptidyl peptidase 4): 60.1 µM
IC50 [1]: > 100 µg/mL and > 376 µM

CC(C)c1cccc(C(C)C)c1N1C(=O)c2cccc(O)c2C1=O
IC50 [1]: > 100 µg/mL and > 309 µM

CC(C)c1cccc(C(C)C)c1N1C(=S)c2c(F)c(F)c(F)c(F)c2C1=S
IC50 (Dipeptidyl peptidase 4): 36.7 µM
IC50 [1]: 1.4 µg/mL and 3.4 µM

CCc1cccc(CC)c1N1C(=O)c2cccc(O)c2C1=O
IC50 (Dipeptidyl peptidase 4): 43.3 µM
IC50 [1]: > 100 µg/mL and > 339 µM

CSc1ccccc1N1C(=O)c2cccc(O)c2C1=O
IC50 (Aminopeptidase N): 134 µM
IC50 (Dipeptidyl peptidase 4): 226 µM
IC50 [1]: > 100 µg/mL and > 350 µM

CC(C)c1cccc(C(C)C)c1N1C(=O)c2ccc(O)cc2C1=O
IC50 [1]: 12.7 µg/mL and 39.3 µM

CC(C)c1cccc(C(C)C)c1N1C(=O)c2ccc([N+](=O)[O-])cc2C1=O
IC50 (Dipeptidyl peptidase 4): > 284 µM
IC50 [1]: 42.7 µg/mL and 121 µM

Cc1cccc(C)c1N1C(=O)c2ccc(O)cc2C1=O
IC50 [1]: > 100 µg/mL and > 374 µM

CC(C)c1cccc(C(C)C)c1N1C(=O)c2ccccc2C1=S
IC50 (Aminopeptidase N): > 309 µM and 309 µM
IC50 (Dipeptidyl peptidase 4): 57.8 µM
IC50 [1]: 60.5 µg/mL and 187 µM

CC(C)c1cccc(C(C)C)c1N1C(=O)c2ccccc2C1=O
IC50 (Dipeptidyl peptidase 4): > 325 µM
IC50 [1]: > 100 µg/mL

Cc1cccc(C)c1N1C(=O)c2ccc(N)cc2C1=O
IC50 [1]: > 100 µg/mL and > 376 µM

CC(C)c1cccc(C(C)C)c1N1C(=O)c2c(F)c(F)c(F)c(F)c2C1=S
IC50 (Dipeptidyl peptidase 4): 30.3 µM and 30.4 µM
IC50 [1]: > 100 µg/mL and > 253 µM

CSc1ccccc1N1C(=O)c2cccc([N+](=O)[O-])c2C1=O
IC50 (Aminopeptidase N): > 318 µM
IC50 (Dipeptidyl peptidase 4): > 318 µM
IC50 [1]: > 100 µg/mL

Cc1cccc(C)c1N1C(=O)c2cccc([N+](=O)[O-])c2C1=O
IC50 (Aminopeptidase N): > 338 µM
IC50 (Dipeptidyl peptidase 4): > 338 µM
IC50 [1]: > 100 µg/mL

Cc1cccc(C)c1N1C(=O)c2ccc([N+](=O)[O-])cc2C1=O
IC50 (Aminopeptidase N): > 338 µM
IC50 (Dipeptidyl peptidase 4): > 338 µM
IC50 [1]: > 100 µg/mL

CC(C)c1cccc(C(C)C)c1N1C(=O)c2cccc([N+](=O)[O-])c2C1=O
IC50 (Dipeptidyl peptidase 4): > 284 µM
IC50 [1]: 93.1 µg/mL and 264 µM

Cc1cccc(C)c1N1C(=O)c2ccccc2C1=O
IC50 (Dipeptidyl peptidase 4): > 398 µM
IC50 [1]: > 100 µg/mL
